From patent US8889874B2, “Imidazolone-chalcone derivatives as potential anticancer agent and process for the preparation thereof” (Council of Scientific and Industrial Research, priority 2010, dated 2014)
Like-named read-outs stand apart in the source and are kept apart here.

Columns and labels:
Test in all cases: NCI anticancer screen, SRB assay, 48 h
Format in all cases: cell-based, human
[1] = tested on: NCI-H522 (non-small cell lung); details: Homo sapiens
Method: (§1) Some of biological activity studies were carried out at the National Cancer Institute (NCI), Maryland, USA.
(§2) The compounds were evaluated for anticancer activity against fifty three human cancer cells derived from nine cancer types (leukemia cell line, non-small-cell lung cell line, colon cell line, CNS cell line, melanoma cell line, ovarian cell line, prostate cell line, and breast cancer cell line) as shown in Table 1. For each compound, dose response curves for each cell line were measured at a minimum of five concentrations at 10 fold dilutions. A protocol of 48 h continuous drug exposure was used and a sulforhodamine B (SRB) protein assay was used to estimate cell viability or growth.

SF-539 (CNS) = details: Homo sapiens
Method: as §1, §2

ACHN (renal) = details: Homo sapiens
Method: as §1, §2

[2] = tested on: HOP-62 (non-small cell lung); details: Homo sapiens
Method: as §1, §2

OVCAR-3 (ovarian) = details: Homo sapiens
Method: as §1, §2

SK-OV-3 (ovarian) = details: Homo sapiens
Method: as §1, §2

HCC-2998 (colon) = details: Homo sapiens
Method: as §1, §2

TD-47D (breast) = details: Homo sapiens
Method: as §1, §2

[3] = tested on: K-562 (leukemia cell line); details: Homo sapiens
Method: as §1, §2

LOX IMVI (melanoma) = details: Homo sapiens
Method: as §1, §2

MALME-3M (melanoma) = details: Homo sapiens
Method: as §1, §2

MDA-MB-231/ATCC (breast) = details: Homo sapiens
Method: as §1, §2

SK-MEL-2 (melanoma) = details: Homo sapiens
Method: as §1, §2

M14 (melanoma) = details: Homo sapiens
Method: as §1, §2

[4] = tested on: NCI-H460 (non-small cell lung); details: Homo sapiens
Method: as §1, §2

NCI/ADR-RES (ovarian) = details: Homo sapiens, NCI/ADR-RES
Method: as §1, §2

UACC-62 (melanoma) = details: Homo sapiens
Method: as §1, §2

BT-549 (breast) = details: Homo sapiens
Method: as §1, §2

SNB-19 (CNS) = details: Homo sapiens
Method: as §1, §2

[5] = tested on: NCI-H226 (non-small cell lung); details: Homo sapiens
Method: as §1, §2

HT29 (colon) = details: Homo sapiens
Method: as §1, §2

KM12 (colon) = details: Homo sapiens
Method: as §1, §2

UACC-257 (melanoma) = details: Homo sapiens
Method: as §1, §2

TK-10 (renal) = details: Homo sapiens
Method: as §1, §2

HCT-15 (colon) = details: Homo sapiens
Method: as §1, §2

[6] = tested on: NCI-H23 (non-small cell lung); details: Homo sapiens
Method: as §1, §2

COLO 205 (colon) = details: Homo sapiens, COLO 205
Method: as §1, §2

SN12C (renal) = details: Homo sapiens, SN12C
Method: as §1, §2

OVCAR-5 (ovarian) = details: Homo sapiens
Method: as §1, §2

SF-268 (CNS) = details: Homo sapiens
Method: as §1, §2

OVCAR-8 (ovarian) = details: Homo sapiens
Method: as §1, §2

CAKI-1 (renal) = details: Homo sapiens
Method: as §1, §2

SNB-75 (CNS) = details: Homo sapiens
Method: as §1, §2

[7] = tested on: EKVX (non-small cell lung); details: Homo sapiens
Method: as §1, §2

[8] = 48 h exposure, SRB, read-out: GI50
[9] = read-out: pGI50 (-log of molar concentration causing 50% inhibition of net cell growth) (converted)

Compound `COc1cc(/C=C/C(=O)c2cccc(-n3cc(-c4cc(OC)c(OC)c(OC)c4)[nH]c3=O)c2)cc(OC)c1OC` [5d, 4-(3,4,5-trimethoxyphenyl)-1-3-[(E)-3-(3,4,5-trimethoxyphenyl)-2-propenoyl]phenyl-2,3-dihydro-1H-2-imidazolone] has a GI50 [1, 8] of 1.05 µM, a GI50 [1, 9] of 1.05 µM and a GI50 (SF-539 (CNS); [8]) of 3.12 µM. For the same compound, the GI50 (SF-539 (CNS); [9]) was 3.09 µM, the GI50 (ACHN (renal); [8]) was 1.74 µM and the GI50 (ACHN (renal); [9]) was 1.74 µM. The GI50 [2, 8] was 3.08 µM, the GI50 [2, 9] was 3.09 µM and the GI50 (OVCAR-3 (ovarian); [8]) was 1.48 µM. The GI50 (OVCAR-3 (ovarian); [9]) was 1.48 µM, the GI50 (SK-OV-3 (ovarian); [8]) was 5.12 µM and the GI50 (SK-OV-3 (ovarian); [9]) was 5.13 µM. For the same compound, the GI50 (HCC-2998 (colon); [8]) was 1.92 µM, the GI50 (HCC-2998 (colon); [9]) was 1.91 µM and the GI50 (TD-47D (breast); [8]) was 3.08 µM. For the same compound, the GI50 (TD-47D (breast); [9]) was 3.09 µM, the GI50 ([3]; K562, 48 h exposure, SRB, read-out: GI50) was 0.59 µM and the GI50 ([3]; K562, read-out: pGI50 (-log of molar concentration causing 50% inhibition of net cell growth) (converted)) was 0.589 µM. It also gave a GI50 (LOX IMVI (melanoma); [8]) of 1.23 µM, a GI50 (LOX IMVI (melanoma); [9]) of 1.23 µM and a GI50 (MALME-3M (melanoma); Malme-3M, read-out: pGI50 (-log of molar concentration causing 50% inhibition of net cell growth) (converted)) of 1.82 µM. The GI50 (MALME-3M (melanoma); MALME-3M, 48 h exposure, SRB, read-out: GI50) was 1.8 µM, the GI50 (MDA-MB-231/ATCC (breast); [8]) was 4.19 µM and the GI50 (MDA-MB-231/ATCC (breast); [9]) was 4.17 µM. The GI50 (SK-MEL-2 (melanoma); [8]) was 3.02 µM, the GI50 (SK-MEL-2 (melanoma); [9]) was 3.02 µM and the GI50 (M14 (melanoma); [8]) was 2.12 µM. For the same compound, the GI50 (M14 (melanoma); [9]) was 2.14 µM, the GI50 [4, 8] was 1.73 µM and the GI50 [4, 9] was 1.74 µM. It also gave a GI50 (NCI/ADR-RES (ovarian); NCl/ADR-RES, 48 h exposure, SRB, read-out: GI50) of 2.1 µM, a GI50 (NCI/ADR-RES (ovarian); [9]) of 2.09 µM and a GI50 (UACC-62 (melanoma); [8]) of 1.87 µM. For the same compound, the GI50 (UACC-62 (melanoma); [9]) was 1.86 µM, the GI50 (BT-549 (breast); [8]) was 1.52 µM and the GI50 (BT-549 (breast); [9]) was 1.51 µM. The GI50 (SNB-19 (CNS); [8]) was 4.07 µM, the GI50 (SNB-19 (CNS); [9]) was 4.07 µM and the GI50 [5, 8] was 14.4 µM. The GI50 [5, 9] was 14.5 µM, the GI50 (HT29 (colon); HT-29, 48 h exposure, SRB, read-out: GI50) was 1.7 µM and the GI50 (HT29 (colon); HT-29, read-out: pGI50 (-log of molar concentration causing 50% inhibition of net cell growth) (converted)) was 1.7 µM. For the same compound, the GI50 (KM12 (colon); [8]) was 1.12 µM, the GI50 (KM12 (colon); [9]) was 1.12 µM and the GI50 (UACC-257 (melanoma); [8]) was 2.22 µM. It also gave a GI50 (UACC-257 (melanoma); [9]) of 2.24 µM, a GI50 (TK-10 (renal); [8]) of 3 µM and a GI50 (TK-10 (renal); [9]) of 3.02 µM. It also gave a GI50 (HCT-15 (colon); [8]) of 1.89 µM, a GI50 (HCT-15 (colon); [9]) of 1.91 µM and a GI50 [6, 8] of 2 µM. The GI50 [6, 9] was 2 µM, the GI50 (COLO 205 (colon); COLO205, read-out: pGI50 (-log of molar concentration causing 50% inhibition of net cell growth) (converted)) was 1.51 µM and the GI50 (COLO 205 (colon); [8]) was 1.52 µM. It also gave a GI50 (SN12C (renal); SN 12C, read-out: pGI50 (-log of molar concentration causing 50% inhibition of net cell growth) (converted)) of 2.75 µM, a GI50 (SN12C (renal); [8]) of 2.75 µM and a GI50 (OVCAR-5 (ovarian); [8]) of 4.38 µM. For the same compound, the GI50 (OVCAR-5 (ovarian); [9]) was 4.37 µM, the GI50 (SF-268 (CNS); [8]) was 2.2 µM and the GI50 (SF-268 (CNS); [9]) was 2.19 µM. The GI50 (OVCAR-8 (ovarian); [8]) was 2.32 µM, the GI50 (OVCAR-8 (ovarian); [9]) was 2.34 µM and the GI50 (CAKI-1 (renal); [8]) was 2.89 µM. The GI50 (CAKI-1 (renal); [9]) was 2.88 µM, the GI50 (SNB-75 (CNS); [8]) was 5.13 µM and the GI50 (SNB-75 (CNS); [9]) was 5.13 µM. It also gave a GI50 [7, 8] of 9.47 µM and a GI50 [7, 9] of 9.55 µM.
